{
  "source": "patent US11047848B2",
  "about": "“Cellular discovery platform for neurodegenerative diseases” (Whitehead Institute for Biomedical Research, priority 2013, dated 2021)",
  "tested_on": "primary cortical cultures",
  "test": "Optimization of the NO sensor FL2 in rat primary cortical cultures",
  "format": "cell-based",
  "conditions": "500 μM DETA-NONOate for 30 min, DIV 14-21; FIG. 20",
  "method": "FIG. 20. Optimization of the NO sensor, FL2, using an NO donor, DETA-NONOate. FL2 dye was loaded after exposing primary cortical cultures (DIV 14-21) to 500 μM DETA-NONOate for 30 min. […] Control cultures exposed to dye without an NO donor are shown in the upper panel. A single representative experiment is shown.\nEmbryos were harvested by cesarean section from anesthetized pregnant Sprague-Dawley rats at embryonic day 18. Cerebral cortices were isolated and dissociated with Accumax (Innovative Cell Technologies, Inc) digestion for 20 min at 37° C. and triutration with Pasteur pipette. Poly-ornithine and lamine-coated 96 well plates or 8 well-chambered coverglass (Lab-Tek; 70378-81) were seeded with 4×10^4 or 8×10^4 cells respectively in neurobasal medium (Life Technologies) supplemented with B27 (Life Technologies), 0.5 mM glutamine, 25 μM β-mercaptoethanol, penicillin (100 IU/ml) and streptomycin (100 μg/ml). One third of the medium was changed every 3 to 4 days. As a surrogate marker of cell viability, cellular ATP content was measured using the ViaLight Plus kit (Lonza).\nThe FL2 sensor used in this study was a non-acidified and non-esterified version of the FL2-related sensors that have been previously published^23,24,53,55. A working 1 mM solution of FL2 (batch SJL #1768) in DMSO (Sigma 276855) was stable for at least 3 months at −20° C. […]",
  "data": [
    {"smiles": "NCCN(CCN)/[N+]([O-])=N/O", "note": "[DETA-NONOate]", "values": [
      {"measurement": "FL2 response (NO signal)", "value": "robust FL2 response"}
    ]}
  ]
}
